Series [1] can be described thus: Half life in rat at 1 mg/kg, iv. As to conditions: in vivo. It is filed as ADME, organism-based. More on the design: dose 1 mg/kg, route intravenous.
Series [2] is described as follows: Inhibition of MRCK. More on the design: species or system Homo sapiens.
Series [3] can be described thus: Tmax in rat at 2 mg/kg, po. In kind it is ADME, organism-based. More on the design: dose 2 mg/kg, route oral. Conditions: in vivo.
Series [4] is described as follows: Volume of distribution in rat at 1 mg/kg, iv. In kind it is ADME, organism-based. Details: dose 1 mg/kg, route intravenous. As to conditions: in vivo.
Series [5] addresses Rho-associated protein kinase 2 (Homo sapiens, UniProt O75116). The experiment in a line: Inhibition of ROCK2.
Series [6] in a line: AUC (0 to infinity) in rat at 1 mg/kg, iv. Conditions: plasma. More on the design: time infinity, dose 1 mg/kg, route intravenous. It is filed as ADME, organism-based.
The nature of series [7]: Inhibition of PKA. More on the design: species or system Homo sapiens.
A short description of series [8]: Oral bioavailability in rat at 2 mg/kg. It is filed as ADME, organism-based. As to conditions: in vivo.
Series [9] is described as follows: Clearance in rat at 1 mg/kg, iv. Conditions: in vivo. It is filed as ADME, organism-based. More on the design: dose 1 mg/kg, route intravenous.
A short description of series [10]: Cmax in rat at 2 mg/kg, po. Details: dose 2 mg/kg, route oral. In kind it is ADME, organism-based. Conditions: in vivo.
Series [11] can be described thus: AUC (0 to infinity) in rat at 2 mg/kg, po. More on the design: time infinity, dose 2 mg/kg, route oral. It is filed as ADME, organism-based. Conditions: plasma.
For series [12], the system named is N2a. The experiment in a line: Inhibition of LPA-induced neurite retraction in mouse N2A cells. It is filed as functional, cell-based.
The target in series [13] is Cytochrome P450 3A4 (Homo sapiens, UniProt P08684).
Chain of Cytochrome P450 3A4 (P08684 whole entry): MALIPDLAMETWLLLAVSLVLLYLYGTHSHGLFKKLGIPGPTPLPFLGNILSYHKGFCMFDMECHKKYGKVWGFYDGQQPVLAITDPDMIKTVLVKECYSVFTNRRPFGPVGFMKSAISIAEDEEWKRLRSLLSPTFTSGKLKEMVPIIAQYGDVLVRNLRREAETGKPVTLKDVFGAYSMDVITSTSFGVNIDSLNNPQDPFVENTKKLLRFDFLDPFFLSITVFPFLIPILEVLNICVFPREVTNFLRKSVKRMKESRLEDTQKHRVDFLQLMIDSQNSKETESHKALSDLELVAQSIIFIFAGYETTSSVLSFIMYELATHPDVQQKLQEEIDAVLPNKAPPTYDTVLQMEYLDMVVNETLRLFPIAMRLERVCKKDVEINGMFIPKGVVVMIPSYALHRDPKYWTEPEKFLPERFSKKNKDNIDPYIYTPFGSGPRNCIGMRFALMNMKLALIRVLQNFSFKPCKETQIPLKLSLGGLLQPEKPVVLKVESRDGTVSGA
A short description of series [14]: Metabolic stability in human liver microsomes.
The species named for series [15] is Homo sapiens. The experiment in a line: Selectivity for ROCK2 over PKA.
For series [16], the species on record is Homo sapiens. The experiment in a line: Selectivity for ROCK2 over MRCK.

The values below come from ChEMBL document CHEMBL1139200, “Structure-activity relationships, and drug metabolism and pharmacokinetic properties for indazole piperazine and indazole piperidine inhibitors of ROCK-II” (Bioorg Med Chem Lett, 2007).

Chain of Rho-associated protein kinase 2 (O75116 whole entry): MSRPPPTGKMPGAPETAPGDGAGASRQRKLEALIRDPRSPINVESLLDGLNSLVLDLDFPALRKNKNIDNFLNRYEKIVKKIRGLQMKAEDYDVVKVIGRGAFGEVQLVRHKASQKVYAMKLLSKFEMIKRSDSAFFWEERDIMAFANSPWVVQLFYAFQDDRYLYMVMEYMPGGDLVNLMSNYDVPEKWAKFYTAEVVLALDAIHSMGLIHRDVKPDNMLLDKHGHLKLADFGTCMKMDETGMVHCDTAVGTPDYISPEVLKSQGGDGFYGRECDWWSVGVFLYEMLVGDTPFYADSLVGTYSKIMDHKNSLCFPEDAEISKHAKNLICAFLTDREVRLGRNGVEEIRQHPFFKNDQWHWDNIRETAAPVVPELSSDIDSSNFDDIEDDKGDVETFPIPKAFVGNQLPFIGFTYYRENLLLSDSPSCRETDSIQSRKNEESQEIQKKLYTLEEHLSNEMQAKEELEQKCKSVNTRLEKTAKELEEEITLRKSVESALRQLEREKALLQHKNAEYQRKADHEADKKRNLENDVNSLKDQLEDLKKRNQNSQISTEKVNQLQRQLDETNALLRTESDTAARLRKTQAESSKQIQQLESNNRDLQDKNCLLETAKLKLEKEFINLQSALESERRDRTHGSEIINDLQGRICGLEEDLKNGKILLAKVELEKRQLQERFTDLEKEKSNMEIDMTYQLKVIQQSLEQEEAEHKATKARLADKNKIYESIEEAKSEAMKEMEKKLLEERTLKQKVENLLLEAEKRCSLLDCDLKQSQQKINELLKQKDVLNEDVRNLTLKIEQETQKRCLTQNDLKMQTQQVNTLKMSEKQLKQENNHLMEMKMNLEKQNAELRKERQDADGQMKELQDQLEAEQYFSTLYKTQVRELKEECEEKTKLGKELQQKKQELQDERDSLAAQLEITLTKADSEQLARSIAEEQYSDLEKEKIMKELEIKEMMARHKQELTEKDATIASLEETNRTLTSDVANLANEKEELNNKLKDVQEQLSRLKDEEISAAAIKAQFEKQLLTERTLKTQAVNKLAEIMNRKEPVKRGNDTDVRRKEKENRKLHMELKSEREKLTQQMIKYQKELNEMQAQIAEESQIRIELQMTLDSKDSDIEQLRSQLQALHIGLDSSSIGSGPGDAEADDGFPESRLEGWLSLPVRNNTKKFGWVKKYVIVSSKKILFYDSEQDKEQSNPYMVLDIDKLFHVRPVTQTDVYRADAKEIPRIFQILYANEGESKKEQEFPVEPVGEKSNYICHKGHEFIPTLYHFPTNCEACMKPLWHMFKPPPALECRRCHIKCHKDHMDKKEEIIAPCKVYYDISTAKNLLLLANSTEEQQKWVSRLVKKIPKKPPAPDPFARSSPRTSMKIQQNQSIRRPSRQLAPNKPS

In turn, `O=C(C(O)c1ccc(Br)cc1)N1CCN(c2ccc3[nH]ncc3c2)CC1` (configuration not stated) gave a half-life in series [1] of 42 min. Also, the IC50 in series [2] was above 20000 nM; in series [5], 100 nM; in series [7], 2700 nM; in series [12], 2400 nM. Further, the Tmax in [3] was 24 min. For the same compound, the Vd in [4] stood at 3.7 L/kg. The AUC(0-inf) in series [6] was 0.38 µM·h; in series [11] it was 0.21 µM·h. This compound also came in with a bioavailability in series [8] of 28%. For the same compound, the clearance in [9] was found to be 109 mL/min/kg. Also, the Cmax in [10] is 100 nM.

The compound `N[C@H](C(=O)N1CCC(Nc2ccc3[nH]ncc3c2)CC1)c1ccccc1` showed an IC50 in series [5] of 830 nM.

`NC(C(=O)N1CCC(Nc2ccc3[nH]ncc3c2)CC1)c1cccc(Cl)c1` (configuration not stated): the IC50 worked out at 170 nM in series [13] and 150 nM in [5].

With `NC(C(=O)N1CCN(c2ccc3[nH]ncc3c2)CC1)c1ccc(Cl)cc1` (configuration not stated), the values for the IC50 in series [13] and in series [5] were 530 nM and 190 nM, respectively.

As to `N[C@H](Cc1ccccc1)C(=O)N1CCN(c2ccc3[nH]ncc3c2)CC1`, the values for the IC50 in [13] and in series [5] were 7000 nM and 380 nM, respectively.

Turning to `O=C([C@@H](O)c1cccc(Cl)c1)N1CCC(Nc2ccc3[nH]ncc3c2)CC1`, the IC50 came out at 2000 nM in [13] and 350 nM in series [5].

Take `O=C([C@H](O)c1ccccc1)N1CCN(c2ccc3[nH]ncc3c2)CC1`: the figures for the IC50 in series [13] and in series [5] were 10000 nM and 800 nM, respectively.

With `NC(C(=O)N1CCN(c2ccc3[nH]ncc3c2)CC1)c1ccc(Br)cc1` (configuration not stated), the IC50 in [13] is 410 nM; in [2], above 20000 nM; in series [5], 90 nM; in series [7] it was 450 nM; in [12], above 15000 nM. Besides, the half-life is 9.8 min in series [14] (liver microsomes) and 36 min in series [1]. In series [3], the Tmax was 24 min. Moreover, the Vd in series [4] was 2.7 L/kg. Further, the figures for the AUC(0-inf) in series [6] and in series [11] were 0.54 µM·h and 0.09 µM·h, respectively. In addition, the Ratio IC50 was 5 in [15] and above 222 in [16]. Besides, the bioavailability in series [8] is 8%. For the same compound, the clearance in [9] turned out to be 75.5 mL/min/kg. In series [10], the Cmax was 400 nM.

For the compound `O=C([C@H](O)c1ccccc1)N1CCC(Nc2ccc3[nH]ncc3c2)CC1`, the IC50 in series [13] stood at 1000 nM; in [5], 770 nM.

Consider `C[C@@H](N)C(=O)N1CCN(c2ccc3[nH]ncc3c2)CC1`, for which the values for the IC50 in [13] and in series [5] were 10000 nM and above 10000 nM, respectively.

In the case of `NC(C(=O)N1CCN(c2ccc3[nH]ncc3c2)CC1)c1cccc(Cl)c1` (configuration not stated), the half-inhibitory concentration (IC50) was 250 nM in series [13] and 760 nM in series [5].

For the compound `C[C@H](O)C(=O)N1CCC(Nc2ccc3[nH]ncc3c2)CC1`, the IC50 turned out to be 1000 nM in [13] and 10000 nM in [5].

Take `O=C([C@@H]1Cc2ccccc2CN1)N1CCN(c2ccc3[nH]ncc3c2)CC1`: the values for the IC50 in [13] and in [5] were 10000 nM and 5300 nM, respectively.

Take `N[C@@H](Cc1ccccc1)C(=O)N1CCC(Nc2ccc3[nH]ncc3c2)CC1`: the values for the IC50 in series [13] and in series [5] were 1000 nM and 470 nM, respectively.

For `CC(C)[C@@H](O)C(=O)N1CCN(c2ccc3[nH]ncc3c2)CC1`, the IC50 in series [13] turned out to be 10000 nM; in series [5] it was 3900 nM.

With `N[C@@H](C(=O)N1CCN(c2ccc3[nH]ncc3c2)CC1)c1ccccc1`, the IC50 in series [13] came to 470 nM; in [5], 1300 nM.

`O=C([C@H](O)c1ccccc1Cl)N1CCN(c2ccc3[nH]ncc3c2)CC1`: the IC50 was 8000 nM in [13] and 1200 nM in series [5].

For `O=C(C(O)c1ccc(Br)cc1)N1CCC(Nc2ccc3[nH]ncc3c2)CC1` (configuration not stated), the IC50 is 3500 nM in series [13]; above 20000 nM in series [2]; 80 nM in [5]; 4200 nM in series [7]; 3500 nM in series [12]. In addition, the half-life in series [14] (liver microsomes) is 36.3 min; in series [1], 66 min. The Tmax in series [3] stood at 24 min. In series [4], this compound registered a Vd of 1.9 L/kg. Moreover, the values for the AUC(0-inf) in [6] and in series [11] were 1.35 µM·h and 0.71 µM·h, respectively. Also, the Ratio IC50 is 53 in [15] and above 250 in [16]. The bioavailability in series [8] was 26%. In series [9], this compound registered a clearance of 30.3 mL/min/kg. Besides, the concentration in series [10] peaked (Cmax) at 200 nM.

Take `C[C@H](N)C(=O)N1CCC(Nc2ccc3[nH]ncc3c2)CC1`: the IC50 in series [13] was above 10000 nM; in series [5] it was 6000 nM.

On to `NC(C(=O)N1CCC(Nc2ccc3[nH]ncc3c2)CC1)c1ccc(Br)cc1` (configuration not stated), for which the IC50 in series [13] amounted to 490 nM; in [2], 7200 nM; in series [5], 13 nM; in series [7] it was 940 nM; in series [12] it was 5700 nM. Moreover, the half-life in series [14] (microsomes) was 10.8 min; in series [1], 36 min. The Tmax in series [3] worked out at 42 min. Further, in series [4], the Vd was found to be 1.7 L/kg. Also, the AUC(0-inf) came out at 0.95 µM·h in series [6] and 0.15 µM·h in series [11]. The Ratio IC50 in series [15] is 72; in series [16] it was 554. Further, the bioavailability in [8] was 8%. Moreover, the clearance in [9] stood at 41.4 mL/min/kg. In [10], this compound had a Cmax of 100 nM.

As for `O=C([C@@H](O)c1ccccc1Cl)N1CCC(Nc2ccc3[nH]ncc3c2)CC1`, the results for the IC50 in series [13] and in series [5] were 4000 nM and 1700 nM, respectively.

In the case of `O=C([C@H](O)c1cccc(Cl)c1)N1CCN(c2ccc3[nH]ncc3c2)CC1`, the IC50 in [13] was determined as 3500 nM; in series [5], 1000 nM.

For the compound `O=C(C(O)c1ccc(Cl)cc1)N1CCN(c2ccc3[nH]ncc3c2)CC1` (configuration not stated), the 50% inhibitory concentration (IC50) in series [13] stood at 3000 nM; in series [5], 190 nM.

What is called half-life is the time needed for the level to fall by half in the phase considered. A high value points to slow decline. For orientation: IC50 means the concentration that inhibits the measured activity by half. Lower therefore signals higher potency. One may read the Tmax as the time from dosing to the highest level. The term Vd denotes a proportionality between amount in the body and measured concentration, not a real space. For orientation: AUC(0-inf) means the area under the concentration-time curve extrapolated to infinity. Higher therefore signals high exposure. The bioavailability is the share of a dose that reaches the circulation, judged against a reference dose that is usually intravenous. The term clearance denotes a measure of how efficiently the substance is removed, as volume per time. A lower clearance goes with inefficient removal. As usually defined, the Cmax is the highest concentration seen after dosing.
